Key:
Format in all cases: in vivo
[1] = test system: redroot pigweed (Amaranthus retroflexus, AMARE); experiment: Pre-emerge test, greenhouse herbicide activity screening; conditions: for Pre-emerge Herbicidal Activity AMARE: phytotoxicity rating 0-100 at 14 days after application
Procedure, shortened: (§1)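 Herbicidal damage is scored 0 (none) to 100 (complete plant death) two weeks after a simulated field spray. Rates span 15–1000 g ai/ha, delivered in acetone at 187 l/ha. For post-emergence treatments, plants have 2–3 leaves and the spray carries 0.25% v/v non-ionic surfactant.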

[2] = test system: barnyardgrass (Echinochloa crus-galli, ECHCG); experiment: as above; conditions: for Pre-emerge Herbicidal Activity ECHCG: phytotoxicity rating 0-100 at 14 days after application
Procedure, shortened: (§2)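 Visual ratings on a 0-100 scale (0 no damage, 100 all plants dead) were taken at 14 days after treatment. Rates of 15-1000 g ai/ha in acetone, 187 l/ha, were sprayed onto soil one day after planting (pre-emerge) or onto 2-3 leaf plants with 0.25% v/v surfactant (post-emerge).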

[3] = test system: green foxtail (Setaria viridis, SETVI); experiment: as above; conditions: for Pre-emerge Herbicidal Activity SETVI: phytotoxicity rating 0-100 at 14 days after application
Procedure, shortened: as §2

[4] = test system: ivyleaf morningglory (Ipomoea hederacea, IPOHE); experiment: as above; conditions: for Pre-emerge Herbicidal Activity IPOHE: phytotoxicity rating 0-100 at 14 days after application
Procedure, shortened: as §2

[5] = test system: johnsongrass (Sorghum halepense, SORHA); experiment: as above; conditions: for Pre-emerge Herbicidal Activity SORHA: phytotoxicity rating 0-100 at 14 days after application
Procedure, shortened: as §2

[6] = test system: lambsquarters (Chenopodium album, CHEAL); experiment: as above; conditions: for Pre-emerge Herbicidal Activity CHEAL: phytotoxicity rating 0-100 at 14 days after application
Procedure, shortened: as §2

[7] = test system: large crabgrass (Digitaria sanguinalis, DIGSA); experiment: as above; conditions: for Pre-emerge Herbicidal Activity DIGSA: phytotoxicity rating 0-100 at 14 days after application
Procedure, shortened: as §2

[8] = test system: sicklepod (Cassia obtusifolia, CASOB); experiment: as above; conditions: for Pre-emerge Herbicidal Activity CASOB: phytotoxicity rating 0-100 at 14 days after application
Procedure, shortened: as §2

[9] = test system: velvetleaf (Abutilon theophrasti, ABUTH); experiment: as above; conditions: for Pre-emerge Herbicidal Activity ABUTH: phytotoxicity rating 0-100 at 14 days after application
Procedure, shortened: as §2

[10] = test system: field corn (Zea mays L., var. Dekalb 535, CORN); experiment: Pre-emerge test, crop safety; conditions: for Pre-emerge Herbicidal Activity CORN: crop damage, phytotoxicity rating 0-100 at 14 days after application
Procedure, shortened: as §1

[11] = test system: upland rice (Oryza sp., var. Tebonnet, RICE); experiment: Pre-emerge test, crop safety; conditions: for Pre-emerge Herbicidal Activity RICE: crop damage, phytotoxicity rating 0-100 at 14 days after application
Procedure, shortened: as §1

[12] = test system: barnyardgrass (Echinochloa crus-galli, ECHCG); experiment: Post-emerge test, greenhouse herbicide activity screening; conditions: post-emerge, phytotoxicity rating 0-100 at 14 days after application
Procedure, shortened: (§3)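 Rating: 0–100 visual injury, 14 DAA. Application: acetone, 187 l/ha, 15–1000 g ai/ha, flat-fan track sprayer with nozzle 40–45 cm above soil or canopy. Post-emerge runs used 0.25% v/v surfactant on 2–3 leaf plants.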

[13] = test system: green foxtail (Setaria viridis, SETVI); experiment: as above; conditions: post-emerge, phytotoxicity rating 0-100 at 14 days after application
Procedure, shortened: as §3

[14] = test system: ivyleaf morningglory (Ipomoea hederacea, IPOHE); experiment: as above; conditions: post-emerge, phytotoxicity rating 0-100 at 14 days after application
Procedure, shortened: as §3

[15] = test system: johnsongrass (Sorghum halepense, SORHA); experiment: as above; conditions: post-emerge, phytotoxicity rating 0-100 at 14 days after application
Procedure, shortened: as §3

[16] = test system: lambsquarters (Chenopodium album, CHEAL); experiment: as above; conditions: post-emerge, phytotoxicity rating 0-100 at 14 days after application
Procedure, shortened: as §3

[17] = test system: large crabgrass (Digitaria sanguinalis, DIGSA); experiment: as above; conditions: post-emerge, phytotoxicity rating 0-100 at 14 days after application
Procedure, shortened: as §3

[18] = test system: redroot pigweed (Amaranthus retroflexus, AMARE); experiment: as above; conditions: post-emerge, phytotoxicity rating 0-100 at 14 days after application
Procedure, shortened: as §3

[19] = test system: sicklepod (Cassia obtusifolia, CASOB); experiment: as above; conditions: post-emerge, phytotoxicity rating 0-100 at 14 days after application
Procedure, shortened: as §3

[20] = test system: velvetleaf (Abutilon theophrasti, ABUTH); experiment: as above; conditions: post-emerge, phytotoxicity rating 0-100 at 14 days after application
Procedure, shortened: as §3

[21] = test system: field corn (Zea mays L., var. Dekalb 535, CORN); experiment: Post-emerge test, crop safety; conditions: post-emerge, crop damage rating 0-100 at 14 days after application
Procedure, shortened: as §2

[22] = test system: upland rice (Oryza sp., var. Tebonnet, RICE); experiment: Post-emerge test, crop safety; conditions: post-emerge, crop damage rating 0-100 at 14 days after application
Procedure, shortened: as §2

[23] = 250 g ai/ha, rating scale 0-100, 14 days after application

With `CC(C)Oc1c(Cl)cc(F)c(N2C(=O)C3=C(CCCC3)C2=O)c1NC(=O)c1ccc(F)cc1F` [8-18] the “Pre-emerge Herbicidal Activity AMARE” value ([1]; rate 63 g ai/ha) was 60, the “Pre-emerge Herbicidal Activity AMARE” value ([1]; rate 250 g ai/ha) was 100 and the “Pre-emerge Herbicidal Activity ECHCG” value ([2]; rate 63 g ai/ha) was 10. The “Pre-emerge Herbicidal Activity ECHCG” value ([2]; rate 250 g ai/ha) was 90, the “Pre-emerge Herbicidal Activity SETVI” value ([3]; rate 63 g ai/ha) was 50 and the “Pre-emerge Herbicidal Activity SETVI” value ([3]; rate 250 g ai/ha) was 100. The “Pre-emerge Herbicidal Activity IPOHE” value ([4]; rate 63 g ai/ha) was 0, the “Pre-emerge Herbicidal Activity IPOHE” value ([4]; rate 250 g ai/ha) was 30 and the “Pre-emerge Herbicidal Activity SORHA” value ([5]; rate 63 g ai/ha) was 0. The “Pre-emerge Herbicidal Activity SORHA” value ([5]; rate 250 g ai/ha) was 50, the “Pre-emerge Herbicidal Activity CHEAL” value ([6]; rate 63 g ai/ha) was 70 and the “Pre-emerge Herbicidal Activity CHEAL” value ([6]; rate 250 g ai/ha) was 100. For the same molecule, the “Pre-emerge Herbicidal Activity DIGSA” value ([7]; rate 63 g ai/ha) was 10, the “Pre-emerge Herbicidal Activity DIGSA” value ([7]; rate 250 g ai/ha) was 80 and the “Pre-emerge Herbicidal Activity CASOB” value ([8]; rate 63 g ai/ha) was 0. For the same molecule, the “Pre-emerge Herbicidal Activity CASOB” value ([8]; rate 250 g ai/ha) was 60, the “Pre-emerge Herbicidal Activity ABUTH” value ([9]; rate 63 g ai/ha) was 90 and the “Pre-emerge Herbicidal Activity ABUTH” value ([9]; rate 250 g ai/ha) was 100. For the same molecule, the “Pre-emerge Herbicidal Activity CORN” value ([10]; rate 63 g ai/ha) was 0, the “Pre-emerge Herbicidal Activity CORN” value ([10]; rate 250 g ai/ha) was 10 and the “Pre-emerge Herbicidal Activity RICE” value ([11]; rate 63 g ai/ha) was 10. For the same molecule, the “Pre-emerge Herbicidal Activity RICE” value ([11]; rate 250 g ai/ha) was 30, the “Post-emerge Herbicidal Activity ECHCG” value ([12]; 63 g ai/ha) was 10 and the “Post-emerge Herbicidal Activity ECHCG” value ([12]; 250 g ai/ha) was 30. For the same molecule, the “Post-emerge Herbicidal Activity SETVI” value ([13]; 63 g ai/ha) was 30, the “Post-emerge Herbicidal Activity SETVI” value ([13]; 250 g ai/ha) was 30 and the “Post-emerge Herbicidal Activity IPOHE” value ([14]; 63 g ai/ha) was 50. The “Post-emerge Herbicidal Activity IPOHE” value ([14]; 250 g ai/ha) was 60, the “Post-emerge Herbicidal Activity SORHA” value ([15]; 63 g ai/ha) was 10 and the “Post-emerge Herbicidal Activity SORHA” value ([15]; 250 g ai/ha) was 30. For the same molecule, the “Post-emerge Herbicidal Activity CHEAL” value ([16]; 63 g ai/ha) was 70, the “Post-emerge Herbicidal Activity CHEAL” value ([16]; 250 g ai/ha) was 80 and the “Post-emerge Herbicidal Activity DIGSA” value ([17]; 63 g ai/ha) was 10. The “Post-emerge Herbicidal Activity DIGSA” value ([17]; 250 g ai/ha) was 20, the “Post-emerge Herbicidal Activity AMARE” value ([18]; 63 g ai/ha) was 100 and the “Post-emerge Herbicidal Activity AMARE” value ([18]; 250 g ai/ha) was 100. For the same molecule, the “Post-emerge Herbicidal Activity CASOB” value ([19]; 63 g ai/ha) was 30, the “Post-emerge Herbicidal Activity CASOB” value ([19]; 250 g ai/ha) was 40 and the “Post-emerge Herbicidal Activity ABUTH” value ([20]; 63 g ai/ha) was 100. For the same molecule, the “Post-emerge Herbicidal Activity ABUTH” value ([20]; 250 g ai/ha) was 100, the “Post-emerge Herbicidal Activity CORN” value ([21]; 63 g ai/ha) was 5 and the “Post-emerge Herbicidal Activity CORN” value ([21]; 250 g ai/ha) was 30. For the same molecule, the “Post-emerge Herbicidal Activity RICE” value ([22]; 63 g ai/ha) was 50 and the “Post-emerge Herbicidal Activity RICE” value ([22]; 250 g ai/ha) was 60.

For `Nc1c(O)c(Cl)cc(F)c1N1C(=O)C2CCCCN2C1=S` (single isomer, unassigned) [12-2], the “Pre-emerge herbicidal activity, phytotoxicity rating AMARE” value [1, 23] was 100, the “Pre-emerge Herbicidal Activity AMARE” value ([1]; rate 63 g ai/ha) was 100 and the “Pre-emerge herbicidal activity, phytotoxicity rating ECHCG” value [2, 23] was 99. For the same molecule, the “Pre-emerge Herbicidal Activity ECHCG” value ([2]; rate 63 g ai/ha) was 40, the “Pre-emerge herbicidal activity, phytotoxicity rating SETVI” value [3, 23] was 100 and the “Pre-emerge Herbicidal Activity SETVI” value ([3]; rate 63 g ai/ha) was 95. For the same molecule, the “Pre-emerge herbicidal activity, phytotoxicity rating IPOHE” value [4, 23] was 100, the “Pre-emerge Herbicidal Activity IPOHE” value ([4]; rate 63 g ai/ha) was 95 and the “Pre-emerge herbicidal activity, phytotoxicity rating SORHA” value [5, 23] was 100. For the same molecule, the “Pre-emerge Herbicidal Activity SORHA” value ([5]; rate 63 g ai/ha) was 90, the “Pre-emerge herbicidal activity, phytotoxicity rating CHEAL” value [6, 23] was 100 and the “Pre-emerge Herbicidal Activity CHEAL” value ([6]; rate 63 g ai/ha) was 100. For the same molecule, the “Pre-emerge herbicidal activity, phytotoxicity rating DIGSA” value [7, 23] was 100, the “Pre-emerge Herbicidal Activity DIGSA” value ([7]; rate 63 g ai/ha) was 95 and the “Pre-emerge herbicidal activity, phytotoxicity rating CASOB” value [8, 23] was 100. The “Pre-emerge Herbicidal Activity CASOB” value ([8]; rate 63 g ai/ha) was 99, the “Pre-emerge herbicidal activity, phytotoxicity rating ABUTH” value [9, 23] was 100 and the “Pre-emerge Herbicidal Activity ABUTH” value ([9]; rate 63 g ai/ha) was 100. The “Pre-emerge phytotoxicity rating, crop damage CORN” value [10, 23] was 99, the “Pre-emerge Herbicidal Activity CORN” value ([10]; rate 63 g ai/ha) was 40 and the “Pre-emerge phytotoxicity rating, crop damage RICE” value [11, 23] was 99. For the same molecule, the “Pre-emerge Herbicidal Activity RICE” value ([11]; rate 63 g ai/ha) was 50, the “Post-emerge Herbicidal Activity ECHCG” value ([12]; 63 g ai/ha) was 30 and the “Post-emerge Herbicidal Activity ECHCG” value ([12]; 250 g ai/ha) was 80. For the same molecule, the “Post-emerge Herbicidal Activity SETVI” value ([13]; 63 g ai/ha) was 0, the “Post-emerge Herbicidal Activity SETVI” value ([13]; 250 g ai/ha) was 50 and the “Post-emerge Herbicidal Activity IPOHE” value ([14]; 63 g ai/ha) was 90. The “Post-emerge Herbicidal Activity IPOHE” value ([14]; 250 g ai/ha) was 100, the “Post-emerge Herbicidal Activity SORHA” value ([15]; 63 g ai/ha) was 10 and the “Post-emerge Herbicidal Activity SORHA” value ([15]; 250 g ai/ha) was 90. For the same molecule, the “Post-emerge Herbicidal Activity CHEAL” value ([16]; 63 g ai/ha) was 100, the “Post-emerge Herbicidal Activity CHEAL” value ([16]; 250 g ai/ha) was 100 and the “Post-emerge Herbicidal Activity DIGSA” value ([17]; 63 g ai/ha) was 0. The “Post-emerge Herbicidal Activity DIGSA” value ([17]; 250 g ai/ha) was 70, the “Post-emerge Herbicidal Activity AMARE” value ([18]; 63 g ai/ha) was 30 and the “Post-emerge Herbicidal Activity AMARE” value ([18]; 250 g ai/ha) was 100. For the same molecule, the “Post-emerge Herbicidal Activity CASOB” value ([19]; 63 g ai/ha) was 50, the “Post-emerge Herbicidal Activity CASOB” value ([19]; 250 g ai/ha) was 95 and the “Post-emerge Herbicidal Activity ABUTH” value ([20]; 63 g ai/ha) was 100. The “Post-emerge Herbicidal Activity ABUTH” value ([20]; 250 g ai/ha) was 100, the “Post-emerge Herbicidal Activity CORN” value ([21]; 63 g ai/ha) was 10 and the “Post-emerge Herbicidal Activity CORN” value ([21]; 250 g ai/ha) was 100. For the same molecule, the “Post-emerge Herbicidal Activity RICE” value ([22]; 63 g ai/ha) was 20 and the “Post-emerge Herbicidal Activity RICE” value ([22]; 250 g ai/ha) was 80.

From patent publication US6355799B1, “Substituted benzene compounds, process for their preparation, and herbicidal and defoliant compositions containing them” (ISK Americas Incorporated, priority 1997, dated 2002)
